Laboratory results taken from ChEMBL document CHEMBL2406961, “Inhibitors of ATR Kinase for Treatment of Cancer” (ACS Med Chem Lett, 2013).

Biological target: Serine/threonine-protein kinase ATR (Homo sapiens, UniProt Q13535)
Experiment: Inhibition of ATR (unknown origin)

Sequence of Serine/threonine-protein kinase ATR (Q13535 whole entry): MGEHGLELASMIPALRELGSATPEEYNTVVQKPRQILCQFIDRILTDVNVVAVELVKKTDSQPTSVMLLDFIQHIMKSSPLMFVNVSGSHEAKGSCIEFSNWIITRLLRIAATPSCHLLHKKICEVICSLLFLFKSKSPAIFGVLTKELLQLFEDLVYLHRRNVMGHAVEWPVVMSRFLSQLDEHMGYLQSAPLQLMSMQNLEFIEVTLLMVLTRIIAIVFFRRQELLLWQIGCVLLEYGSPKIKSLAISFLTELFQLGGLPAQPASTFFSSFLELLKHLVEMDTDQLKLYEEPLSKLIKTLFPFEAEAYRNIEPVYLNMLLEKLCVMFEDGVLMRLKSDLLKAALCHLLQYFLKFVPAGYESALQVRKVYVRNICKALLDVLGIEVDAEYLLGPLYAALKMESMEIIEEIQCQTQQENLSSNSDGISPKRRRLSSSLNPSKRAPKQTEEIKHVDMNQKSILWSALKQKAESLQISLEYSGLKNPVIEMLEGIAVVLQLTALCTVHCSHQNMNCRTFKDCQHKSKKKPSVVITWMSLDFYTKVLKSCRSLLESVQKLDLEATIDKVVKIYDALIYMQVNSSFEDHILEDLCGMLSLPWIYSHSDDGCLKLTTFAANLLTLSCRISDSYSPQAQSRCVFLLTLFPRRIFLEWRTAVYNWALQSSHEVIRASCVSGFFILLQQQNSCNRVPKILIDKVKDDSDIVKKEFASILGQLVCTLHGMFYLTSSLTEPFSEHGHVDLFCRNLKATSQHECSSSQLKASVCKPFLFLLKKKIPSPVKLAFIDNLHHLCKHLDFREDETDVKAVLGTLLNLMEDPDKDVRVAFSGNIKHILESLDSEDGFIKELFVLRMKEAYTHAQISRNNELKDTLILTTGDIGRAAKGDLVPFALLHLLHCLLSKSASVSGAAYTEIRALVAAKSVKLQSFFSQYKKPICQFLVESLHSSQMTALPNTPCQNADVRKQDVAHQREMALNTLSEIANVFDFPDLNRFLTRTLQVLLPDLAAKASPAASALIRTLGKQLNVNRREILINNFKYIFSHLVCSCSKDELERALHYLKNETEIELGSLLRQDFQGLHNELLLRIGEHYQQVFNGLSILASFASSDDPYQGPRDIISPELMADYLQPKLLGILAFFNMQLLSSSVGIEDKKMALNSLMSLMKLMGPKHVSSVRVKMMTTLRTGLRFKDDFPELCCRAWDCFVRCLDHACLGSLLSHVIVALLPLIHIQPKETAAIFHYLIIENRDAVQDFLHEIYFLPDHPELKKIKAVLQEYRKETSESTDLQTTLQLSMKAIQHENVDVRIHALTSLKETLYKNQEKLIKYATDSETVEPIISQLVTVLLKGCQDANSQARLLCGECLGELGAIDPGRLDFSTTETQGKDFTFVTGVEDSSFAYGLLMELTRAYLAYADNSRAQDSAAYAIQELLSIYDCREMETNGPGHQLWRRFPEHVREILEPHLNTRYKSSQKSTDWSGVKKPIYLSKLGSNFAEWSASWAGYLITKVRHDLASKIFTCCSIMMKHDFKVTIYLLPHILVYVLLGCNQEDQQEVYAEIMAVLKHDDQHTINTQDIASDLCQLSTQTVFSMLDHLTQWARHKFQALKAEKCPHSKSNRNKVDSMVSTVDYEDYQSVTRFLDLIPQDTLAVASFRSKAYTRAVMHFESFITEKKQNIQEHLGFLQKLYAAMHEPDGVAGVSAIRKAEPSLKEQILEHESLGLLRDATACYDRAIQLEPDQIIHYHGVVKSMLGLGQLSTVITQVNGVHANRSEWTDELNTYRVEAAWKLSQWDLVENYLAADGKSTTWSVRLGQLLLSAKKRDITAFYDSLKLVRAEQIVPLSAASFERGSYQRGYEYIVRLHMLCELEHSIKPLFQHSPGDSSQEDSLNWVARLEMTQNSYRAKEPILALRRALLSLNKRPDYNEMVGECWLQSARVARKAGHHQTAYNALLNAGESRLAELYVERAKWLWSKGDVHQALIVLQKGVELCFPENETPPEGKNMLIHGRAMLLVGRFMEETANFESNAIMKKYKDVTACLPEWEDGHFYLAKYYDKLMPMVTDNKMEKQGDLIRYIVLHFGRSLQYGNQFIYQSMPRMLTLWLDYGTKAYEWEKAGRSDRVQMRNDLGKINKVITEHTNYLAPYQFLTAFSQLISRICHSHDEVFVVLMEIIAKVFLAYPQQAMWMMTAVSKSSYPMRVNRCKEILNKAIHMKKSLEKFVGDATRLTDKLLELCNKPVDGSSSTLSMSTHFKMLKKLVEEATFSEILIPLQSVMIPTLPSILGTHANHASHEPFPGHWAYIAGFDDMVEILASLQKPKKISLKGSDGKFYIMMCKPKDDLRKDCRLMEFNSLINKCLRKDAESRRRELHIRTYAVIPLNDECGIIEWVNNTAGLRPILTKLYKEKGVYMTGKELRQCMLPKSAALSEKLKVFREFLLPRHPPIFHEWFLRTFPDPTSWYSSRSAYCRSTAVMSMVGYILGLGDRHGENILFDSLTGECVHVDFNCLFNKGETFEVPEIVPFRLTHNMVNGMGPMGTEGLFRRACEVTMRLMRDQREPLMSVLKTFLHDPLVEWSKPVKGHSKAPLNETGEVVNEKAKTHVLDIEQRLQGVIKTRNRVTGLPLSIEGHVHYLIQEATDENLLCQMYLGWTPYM

Ki [nM] | Structure (SMILES)
90 | CC(C)S(=O)(=O)c1ccc(-c2cnc(N)c(C3CC(c4ccccc4)=NO3)n2)cc1 (configuration not stated)
16 | CNCc1ccc(C2=NOC(c3nc(-c4ccc(S(=O)(=O)C(C)C)cc4)cnc3N)C2)cc1 (configuration not stated)
